From US20180078560A1, “USE OF 4-(4-FLUORO-2-METHOXYPHENYL)-N-{3-[(S-METHYLSULFONIMIDOYL)METHYL]PHENYL}-1,3,5-TRIAZIN-2-AMINE FOR TREATING MULTIPLE MYELOMA” (Bayer Pharma Aktiengesellschaft, priority 2015, published 2018)
“Also recorded” adds a separate entry of the source.

Legend:
EJM = test: Proliferation assay, EJM cell line; type: cell-based; conditions: Homo sapiens, Multiple myeloma, after 72 hours of incubation
JJN3 = test: Proliferation assay, JJN3 cell line; type: cell-based; conditions: Homo sapiens, JJN-3, Multiple myeloma, after 72 hours of incubation
OPM-2 = test: Proliferation assay, OPM-2 cell line; type: cell-based; conditions: Homo sapiens, Multiple myeloma, after 72 hours of incubation
NCI-H929 = test: Proliferation assay, NCI-H929 cell line; type: cell-based; conditions: Homo sapiens, Multiple myeloma, after 72 hours of incubation
[1] = system: NCI-H929 multiple myeloma xenograft; test: In vivo efficacy in NCI-H929 multiple myeloma xenograft model; set-up: species or system NOD/SCID mice; conditions: 25 mg/kg/day p.o. once daily
Protocol: The aim of the present experiments was to assess the in vivo efficacy and tolerability of Compound A′ in monotherapy in the NCI-H929 multiple myeloma xenograft model subcutaneously implanted into NOD/SCID mice.
(§1) In vivo efficacy was determined in female NOD/SCID mice bearing subcutaneous multiple myeloma NCI-H929 xenografts. Compound A′ was assessed at one dose level in monotherapy. Anti-tumour activity and tolerability of the treated group was assessed using the vehicle control group as a reference.
Multiple myeloma tumour fragments, derived from the NCI-H929 cell line, were obtained from xenografts in serial passage in nude mice and placed in PBS containing 10% penicillin/streptomycin. Tumour fragments (one fragment per animal; 3-4 mm edge length) were then subcutaneously implanted in the flank of NOD/SCID recipient mice under isofluorane anaesthesia.
At randomisation, the volume of growing tumours was initially determined. […] The result of the randomisation was documented and maintained with the experimental data Animals not randomised were euthanised. […]
The tumour volumes were determined by two-dimensional measurement with a caliper on the day of randomisation (day 0) and then twice weekly (i.e. on the same days on which mice were weighed). Tumour volumes were calculated according to the formulas: […]
Relative volumes of individual tumours (RTVs) for Day x were calculated by dividing the absolute individual tumour volume on Day x (Tx) by the absolute individual tumour volume of the same tumour on Day 0 (T0) multiplied by 100%:
Anti-tumour activity was evaluated as maximum tumour volume inhibition versus the vehicle control group.
Tumour inhibition for a particular day (T/C in %) was calculated from the ratio of the median RTV values of test versus control groups multiplied by 100.
The minimum (or optimum) T/C% value recorded for a particular test group during an experiment represents the maximum anti-tumour activity for the respective treatment. T/C values were calculated if at least 50% of the randomized animals in the treated group were alive on the day in question. […]

[2] = Tolerability (survival and body weight) in xenograft-bearing mice; type: in vivo
Protocol: as §1
Mortality checks were conducted daily during routine monitoring.
Mice were weighed twice a week. Relative body weights of individual mice in % were calculated by dividing the individual body weight on day X (BWX) by the individual body weight on day 0 (BW0) multiplied by 100 according to the formula: […]
Group median relative body weights were calculated as well, considering only the weights of mice that were alive on the day in question.
The in vivo efficacy and tolerability of BHC's investigational compound Compound A′ was assessed in monotherapy in the NCI-H929 multiple myeloma xenograft model. NCI-H929 tumour fragments, obtained from serial passage in nude mice, were implanted subcutaneously into female NOD/SCID mice. Compound A′ was administered orally at one dose level (25 mg/kg/day) in monotherapy once daily and treatment was started once subcutaneous tumours were established. A vehicle-treated control group was included in each experiment. […] Anti-tumour activity (tumour growth inhibition) and tolerability of treatment group was assessed using the vehicle control group as a reference.

Work on `COc1cc(F)ccc1-c1ncnc(Nc2cccc(CS(C)(=N)=O)c2)n1` (single isomer, unassigned; (+)) [Compound A′, (+)-4-(4-Fluoro-2-methoxyphenyl)-N-{3-[(S-methylsulfonimidoyl)methyl]phenyl}-1,3,5-triazin-2-amine] yielded an IC50 (EJM) of 200 nM, an IC50 (JJN3) of 330 nM and an IC50 (OPM-2) of 600 nM. The IC50 (NCI-H929) was 237 nM, the “NCI-H929 tumour growth vs vehicle control group” value ([1]; Mann-Whitney-Wilcoxon U-test) was “significantly reduced; also recorded: significantly attenuated” and the “minimum T/C value” ([1]; NCI-H929 xenograft s.c. in female NOD/SCID mice, ratio of median RTV vs vehicle) was 5.5%. The anti-tumour activity rating ([1]; NCI-H929 xenograft, rating from optimum T/C) was “High anti-tumour activity”, the “group median BWL (body weight loss)” value ([2]; NCI-H929 xenograft-bearing NOD/SCID mice, 25 mg/kg/day p.o. once daily) was no more than 2.7% and the tolerability profile ([2]; multiple myeloma xenograft-bearing mice, 25 mg/kg/day p.o.) was “acceptable tolerability profile”.
